From patent US20140243334A1, “SUBSTITUTED HYDOXAMIC ACIDS AND USES THEREOF” (Millennium Pharmaceuticals, Inc., priority 2010, published 2014)

Molecular target: T1, purified human HDAC6 (Homo sapiens, UniProt Q9UBN7)
T1 construct: purchased BPS Bioscience 5006
T1 sequence (Q9UBN7 1-1215): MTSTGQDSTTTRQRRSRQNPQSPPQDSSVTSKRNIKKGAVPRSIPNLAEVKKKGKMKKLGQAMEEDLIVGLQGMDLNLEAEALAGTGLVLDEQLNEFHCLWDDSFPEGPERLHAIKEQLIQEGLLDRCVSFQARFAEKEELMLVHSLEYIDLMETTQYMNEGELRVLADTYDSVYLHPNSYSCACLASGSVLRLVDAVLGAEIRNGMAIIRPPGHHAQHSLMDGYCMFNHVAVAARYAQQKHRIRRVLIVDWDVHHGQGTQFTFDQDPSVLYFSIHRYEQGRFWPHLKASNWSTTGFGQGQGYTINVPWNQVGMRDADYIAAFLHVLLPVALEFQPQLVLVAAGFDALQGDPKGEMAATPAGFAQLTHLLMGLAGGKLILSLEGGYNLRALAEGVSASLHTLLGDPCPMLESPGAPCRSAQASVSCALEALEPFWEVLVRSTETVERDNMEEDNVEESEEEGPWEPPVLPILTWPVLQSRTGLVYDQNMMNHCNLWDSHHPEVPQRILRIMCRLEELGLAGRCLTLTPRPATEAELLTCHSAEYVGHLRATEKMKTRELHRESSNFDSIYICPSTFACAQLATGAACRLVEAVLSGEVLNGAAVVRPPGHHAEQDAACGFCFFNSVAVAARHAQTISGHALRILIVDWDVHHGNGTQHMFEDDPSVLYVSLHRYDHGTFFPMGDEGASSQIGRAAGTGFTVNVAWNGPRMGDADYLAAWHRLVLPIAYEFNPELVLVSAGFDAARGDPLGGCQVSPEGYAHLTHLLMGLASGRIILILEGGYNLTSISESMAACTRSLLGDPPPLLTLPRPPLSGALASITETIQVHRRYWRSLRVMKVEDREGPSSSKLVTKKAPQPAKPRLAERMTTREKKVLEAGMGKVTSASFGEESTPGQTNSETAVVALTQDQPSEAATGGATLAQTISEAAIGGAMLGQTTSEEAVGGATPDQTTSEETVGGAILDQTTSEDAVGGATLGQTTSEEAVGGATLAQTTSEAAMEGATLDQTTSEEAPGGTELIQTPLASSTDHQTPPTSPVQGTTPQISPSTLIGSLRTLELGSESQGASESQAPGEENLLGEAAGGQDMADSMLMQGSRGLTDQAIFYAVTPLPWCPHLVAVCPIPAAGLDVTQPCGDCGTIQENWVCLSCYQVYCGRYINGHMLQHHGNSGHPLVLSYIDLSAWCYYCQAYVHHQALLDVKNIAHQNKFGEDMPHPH
Test: HDAC6 Enzyme Assay
Type: biochemical
Settings: HDAC6 inhibition at a compound concentration of 0.412 μM; read-out: Percent Inhibition at 0.412 μM
Procedure: To measure the inhibition of HDAC6 activity, purified human HDAC6 (BPS Bioscience; Cat. No. 5006) is incubated with substrate Ac-Arg-Gly-Lys(Ac)-AMC peptide (Bachem Biosciences; Cat. No. I-1925) for 1 hour at 30° C. in the presence of test compounds or vehicle DMSO control. The reaction is stopped with the HDAC inhibitor trichostatin A (Sigma; Cat. No. T8552) and the amount of Arg-Gly-Lys-AMC generated is quantitated by digestion with trypsin (Sigma; Cat. No. T1426) and subsequent measurement of the amount of AMC released using a fluorescent plate reader (Pherastar; BMG Technologies) set at Ex 340 nm and Em 460 nm. Concentration response curves are generated by calculating the fluorescence increase in test compound-treated samples relative to DMSO-treated controls, and enzyme inhibition (IC50) values are determined from those curves.

inhibition at 0.412 µM	SMILES
53%	O=C(NO)C1CCc2cc(Oc3ccncc3)ccc2C1 (centres unmarked) [Compound I-27, N-hydroxy-6-(pyridin-4-yloxy)-1,2,3,4-tetrahydronaphthalene-2-carboxamide]
76%	NC(=O)c1ccc2c(c1)CC(C(=O)NO)CC2 (centres unmarked) [Compound I-39, N^2-hydroxy-1,2,3,4-tetrahydronaphthalene-2,7-dicarboxamide]
67%	O=C1CCc2c(Oc3ccc4c(c3)CCC(C(=O)NO)C4)ccnc2N1 (centres unmarked) [Compound I-14, N-hydroxy-6-[(7-oxo-5,6,7,8-tetrahydro-1,8-naphthyridin-4-yl)oxy]-1,2,3,4-tetrahydronaphthalene-2-carboxamide]
76%	COc1ccccc1-c1ccc2c(c1)CC(C(=O)NO)CC2 (centres unmarked) [Compound I-68, N-hydroxy-7-(2-methoxyphenyl)-1,2,3,4-tetrahydronaphthalene-2-carboxamide]
48%	O=C(NO)C1CCc2cc(Nc3ccc(Cl)cc3)ccc2C1 (centres unmarked) [Compound I-78, 6-[(4-chlorophenyl)amino]-N-hydroxy-1,2,3,4-tetrahydronaphthalene-2-carboxamide]
76%	COc1ccc2cc(-c3ccc4c(c3)CC(C(=O)NO)CC4)ccc2c1 (centres unmarked) [Compound I-114, N-hydroxy-6′-methoxy-5,6,7,8-tetrahydro-2,2′-binaphthalene-7-carboxamide]
83%	O=C(NO)C1CCc2ccc(-c3cccc(-c4ccccc4)c3)cc2C1 (centres unmarked) [Compound I-110, 7-biphenyl-3-yl-N-hydroxy-1,2,3,4-tetrahydronaphthalene-2-carboxamide]
78%	O=C(NO)C1CCc2ccc(-c3ccccc3Cl)cc2C1 (centres unmarked) [Compound I-70, 7-(2-chlorophenyl)-N-hydroxy-1,2,3,4-tetrahydronaphthalene-2-carboxamide]
82%	O=C(NO)C1CCc2ccc(-c3ccc(N4CCOCC4)nc3)cc2C1 (centres unmarked) [Compound I-99, N-hydroxy-7-(6-morpholin-4-ylpyridin-3-yl)-1,2,3,4-tetrahydronaphthalene-2-carboxamide]
74%	O=C(NO)C1CCc2ccc(Oc3cccc(Cl)c3)cc2C1 (centres unmarked) [Compound I-9, 7-(3-chlorophenoxy)-N-hydroxy-1,2,3,4-tetrahydronaphthalene-2-carboxamide]
79%	CN(C)S(=O)(=O)c1cccc(-c2ccc3c(c2)CC(C(=O)NO)CC3)c1 (centres unmarked) [Compound I-93, 7-{3-[(dimethylamino)sulfonyl]phenyl}-N-hydroxy-1,2,3,4-tetrahydronaphthalene-2-carboxamide]
87%	O=C(NO)C1CCc2ccc(-c3ccc4cc[nH]c4c3)cc2C1 (centres unmarked) [Compound I-72, N-hydroxy-7-(1H-indol-6-yl)-1,2,3,4-tetrahydronaphthalene-2-carboxamide]
74%	CC1(C(=O)Nc2ccc3c(c2)CCC(C(=O)NO)C3)CCNCC1 (centres unmarked) [Compound I-85, N-{6-[(hydroxyamino)carbonyl]-5,6,7,8-tetrahydronaphthalen-2-yl}-4-methylpiperidine-4-carboxamide]
69%	O=C(NO)C1CCc2ccc(-c3ccc(F)c(Cl)c3)cc2C1 (centres unmarked) [Compound I-119, 7-(3-chloro-4-fluorophenyl)-N-hydroxy-1,2,3,4-tetrahydronaphthalene-2-carboxamide]
68%	O=C(NO)C1CCc2cc(NC(=O)C3CC3)ccc2C1 (centres unmarked) [Compound I-77, 6-[(cyclopropylcarbonyl)amino]-N-hydroxy-1,2,3,4-tetrahydronaphthalene-2-carboxamide]
25%	COc1cccc2c1CC(C(=O)NO)CC2 (centres unmarked) [Compound I-15, N-hydroxy-8-methoxy-1,2,3,4-tetrahydronaphthalene-2-carboxamide]

inhibition at 0.412 µM	SMILES
74%	O=C(NO)C1CCc2cc(Oc3ccnc(NC(=O)C4CC4)c3)ccc2C1 (centres unmarked) [Compound I-13, 6-({2-[(cyclopropylcarbonyl)amino]pyridin-4-yl}oxy)-N-hydroxy-1,2,3,4-tetrahydronaphthalene-2-carboxamide]
74%	CC(C)c1cccc(Oc2ccc3c(c2)CC(C(=O)NO)CC3)c1 (centres unmarked) [Compound I-47, N-hydroxy-7-(3-isopropylphenoxy)-1,2,3,4-tetrahydronaphthalene-2-carboxamide]
34%	CN(C)CCOc1ccc2c(c1)CC(C(=O)NO)CC2 (centres unmarked) [Compound I-44, 7-[2-(dimethylamino)ethoxy]-N-hydroxy-1,2,3,4-tetrahydronaphthalene-2-carboxamide]
61%	N#Cc1cc(-c2ccc3c(c2)CC(C(=O)NO)CC3)ccc1F (centres unmarked) [Compound I-105, 7-(3-cyano-4-fluorophenyl)-N-hydroxy-1,2,3,4-tetrahydronaphthalene-2-carboxamide]
85%	CC(=O)Nc1cccc(-c2ccc3c(c2)CCC(C(=O)NO)C3)c1 (centres unmarked) [Compound I-74, 6-[3-(acetylamino)phenyl]-N-hydroxy-1,2,3,4-tetrahydronaphthalene-2-carboxamide]
57%	O=C(NO)C1CCc2ccc(NCc3cccnc3)cc2C1 (centres unmarked) [Compound I-38, N-hydroxy-7-[(pyridin-3-ylmethyl)amino]-1,2,3,4-tetrahydronaphthalene-2-carboxamide]
23%	O=C(NO)C1CCc2cc(Oc3cccc(Cl)c3)ccc2C1 (centres unmarked) [Compound I-19, 6-(3-chlorophenoxy)-N-hydroxy-1,2,3,4-tetrahydronaphthalene-2-carboxamide]
19%	O=C(NC1CC1)c1cccc(Oc2ccc3c(c2)CC(C(=O)NO)CC3)c1 (centres unmarked) [Compound I-43, 7-{3-[(cyclopropylamino)carbonyl]phenoxy}-N-hydroxy-1,2,3,4-tetrahydronaphthalene-2-carboxamide]
73%	O=C(NO)C1CCc2ccc(-c3cc4ccccc4s3)cc2C1 (centres unmarked) [Compound I-61, 7-(1-benzothien-2-yl)-N-hydroxy-1,2,3,4-tetrahydronaphthalene-2-carboxamide]
91%	O=C(NO)C1CCc2cc(F)c(Oc3ccnc(NC(=O)C4CC4)c3)cc2C1 (centres unmarked) [Compound I-32, 7-({2-[(cyclopropylcarbonyl)amino]pyridin-4-yl}oxy)-6-fluoro-N-hydroxy-1,2,3,4-tetrahydronaphthalene-2-carboxamide]
34%	CC(C)Cc1ccc(-c2ccc3c(c2)CC(C(=O)NO)CC3)cc1 (centres unmarked) [Compound I-122, N-hydroxy-7-(4-isobutylphenyl)-1,2,3,4-tetrahydronaphthalene-2-carboxamide]
72%	O=C(NO)C1CCc2ccc(NC(=O)C3CC3)cc2C1 (centres unmarked) [Compound I-22, 7-[(cyclopropylcarbonyl)amino]-N-hydroxy-1,2,3,4-tetrahydronaphthalene-2-carboxamide]
87%	Cn1cc(-c2cc(C(=O)Nc3ccc4c(c3)CC(C(=O)NO)CC4)cc(C(F)(F)F)c2)cn1 (centres unmarked) [Compound I-35, N-hydroxy-7-{[3-(1-methyl-1H-pyrazol-4-yl)-5-(trifluoromethyl)benzoyl]amino}-1,2,3,4-tetrahydronaphthalene-2-carboxamide]
62%	O=C(NO)C1CCc2ccc(Oc3ccc(Cl)cc3)cc2C1 (centres unmarked) [Compound I-11, 7-(4-chlorophenoxy)-N-hydroxy-1,2,3,4-tetrahydronaphthalene-2-carboxamide]
58%	O=C(NO)C1CCc2ccc(-c3ccc(C(F)(F)F)cc3)cc2C1 (centres unmarked) [Compound I-112, N-hydroxy-7-[4-(trifluoromethyl)phenyl]-1,2,3,4-tetrahydronaphthalene-2-carboxamide]

SMILES	inhibition at 0.412 µM
CC(C)COc1ccc2c(c1)CC(C(=O)NO)CC2 (centres unmarked) [Compound I-7, N-hydroxy-7-isobutoxy-1,2,3,4-tetrahydronaphthalene-2-carboxamide]	57%
